Measurements from US20070293581A1, “Methods for Buccal, Lingual or Sublingual Dosing Regimens of Epinephrine for the Treatment of Allergic Emergencies” (priority 2006, published 2007).
Where two headings read alike, the source gives them in different places.

System: patient experiencing an allergic emergency (symptoms of anaphylaxis)
Procedure: A patient experiencing an allergic emergency initiates treatment at the onset of shortness of breath by self administering 40 mg of epinephrine free base in a buccal dosage form.
A patient experiencing an allergic emergency initiates treatment at the onset of shortness of breath by self administering 40 mg of epinephrine free base in a buccal dosage form. […] After another approximately 5 minutes pass without amelioration of the symptoms of anaphylaxis, the patient self administers a third buccal dosage form comprising 20 mg of epinephrine free base.
A patient experiencing an allergic emergency initiates treatment at the onset of shortness of breath by self administering 40 mg of epinephrine free base in a lingual dosage form. After approximately 5 minutes pass without amelioration of the symptoms of anaphylaxis, the patient self administers a second lingual dosage form comprising 40 mg of epinephrine free base. After another approximately 5 minutes pass without amelioration of the symptoms of anaphylaxis, the patient self administers a third lingual dosage form comprising 20 mg of epinephrine free base.

Measured: patient's symptoms of anaphylaxis

CNC[C@H](O)c1ccc(O)c(O)c1 [epinephrine free base, epinephrine]
relieved: Example 1: buccal dosage form, 40 mg then second 40 mg after approx. 5 minutes, outcome within about five minutes after the second dose | Example 2: buccal dosage form, 40 mg, then 20 mg at approx. 5 minute intervals, outcome within about five minutes after the third dose | Example 3: lingual dosage form, 40 mg, then 20 mg at approx. 5 minute intervals, outcome within about five minutes after the third dose
